Assay results as given in PubChem BioAssay AID330 (DTP/NCI, 2004).
Where “and” joins values, the source holds several entries; their conditions need not be identical. Equal entries are not always repeated. Inconclusive results and toxic doses are left out.

Tested on: P388 leukemia ip, CD2F1 mice, survival T/C
Experiment: NCI In Vivo Anticancer Drug Screen. Data for tumor model P388 Leukemia (intraperitoneal) in CD2F1 (CDF1) mice
Conditions: endpoint: median survival time, higher = longer survival
Method in brief: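 Mice carrying the transplanted tumor received test compound or vehicle. Survival was recorded in each group, and the value is the treated-group measurement divided by that of the vehicle-treated control group.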

[1] = dose: 50.0 mg/kg/injection, schedule: Q01DX009 (ip), vehicle: saline
[2] = dose: 100.0 mg/kg/injection, schedule: Q01DX009 (ip), vehicle: saline
[3] = dose: 200.0 mg/kg/injection, schedule: Q01DX009 (ip), vehicle: saline
[4] = dose: 50.0 mg/kg/injection, schedule: Q01DX005 (ip), vehicle: saline with Tween-80
[5] = dose: 50.0 mg/kg/injection, schedule: Q01DX009 (ip), vehicle: saline with Tween-80
[6] = dose: 100.0 mg/kg/injection, schedule: Q01DX009 (ip), vehicle: saline with Tween-80
[7] = dose: 50.0 mg/kg/injection, schedule: Q01DX005 (ip), vehicle: Klucel (hydroxypropylcellulose) (HPC)
[8] = dose: 100.0 mg/kg/injection, schedule: Q01DX005 (ip), vehicle: Klucel (hydroxypropylcellulose) (HPC)
[9] = dose: 200.0 mg/kg/injection, schedule: Q01DX005 (ip), vehicle: Klucel (hydroxypropylcellulose) (HPC)

In the case of CC(=O)OC(CCC1CO1)OC(C)=O (centres undefined), the T/C [1] is reported as 100 % of control, the T/C [2] is reported as 98 % of control and the T/C [3] is reported as 100 % of control.
ClCCN(CCCl)c1ccc(CCN2CCOCC2)cc1 was tested, and the T/C (dose: 6.25 mg/kg/injection, schedule: Q01DX009 (ip), vehicle: saline) was 100 % of control and 113 % of control, the T/C (dose: 12.5 mg/kg/injection, schedule: Q01DX009 (ip), vehicle: saline) was 150 % of control and 154 % of control and the T/C (dose: 25.0 mg/kg/injection, schedule: Q01DX009 (ip), vehicle: saline) was 150 % of control and 220 % of control.
For CCOc1ccc2nc(N=NC(C(C)=O)C(C)=O)sc2c1, the T/C [1] was 90 % of control, the T/C [2] was 92 % of control and the T/C [3] was 92 % of control.
For CCOC(=O)c1ccc(N=NN(C)CC2OC3OC(C)(C)OC3C2OC)cc1 (centres undefined), the T/C (dose: 100.0 mg/kg/injection, schedule: Q04DX002 (ip), vehicle: saline with Tween-80) was 98 % of control, the T/C (dose: 200.0 mg/kg/injection, schedule: Q04DX002 (ip), vehicle: saline with Tween-80) was 98 % of control and the T/C (dose: 400.0 mg/kg/injection, schedule: Q04DX002 (ip), vehicle: saline with Tween-80) was 102 % of control.
For CCC[CH2][Sn]([CH2]CCC)([CH2]CCC)[S]C(=S)NCCNC(=S)[S][Sn]([CH2]CCC)([CH2]CCC)[CH2]CCC, the T/C (dose: 6.25 mg/kg/injection, schedule: Q01DX010 (ip), vehicle: saline) was 120 % of control.
In the case of C/C(=N/NC(=S)NCc1ccccc1)c1ncccn1, the T/C (dose: 12.5 mg/kg/injection, schedule: Q01DX005 (ip), vehicle: saline with Tween-80) is reported as 100 % of control, the T/C (dose: 25.0 mg/kg/injection, schedule: Q01DX005 (ip), vehicle: saline with Tween-80) is reported as 100 % of control and the T/C [4] is reported as 105 % of control and 98 % of control.
CC(=C\C=N\N(C)c1ccccc1)/C=C1\Cc2ccccc2C1=O was tested, and the T/C (dose: 100.0 mg/kg/injection, schedule: Q04DX003 (ip), vehicle: Klucel (hydroxypropylcellulose) (HPC)) was 99 % of control, the T/C (dose: 200.0 mg/kg/injection, schedule: Q04DX003 (ip), vehicle: Klucel (hydroxypropylcellulose) (HPC)) was 97 % of control and the T/C (dose: 400.0 mg/kg/injection, schedule: Q04DX003 (ip), vehicle: Klucel (hydroxypropylcellulose) (HPC)) was 96 % of control.
O=C(C=C(C(F)(F)F)C(F)(F)F)c1cccc([N+](=O)[O-])c1 was tested, and the T/C (dose: 6.25 mg/kg/injection, schedule: Q04DX003 (ip), vehicle: saline with Tween-80) was 104 % of control, the T/C (dose: 12.5 mg/kg/injection, schedule: Q04DX003 (ip), vehicle: saline with Tween-80) was 104 % of control and the T/C (dose: 25.0 mg/kg/injection, schedule: Q04DX003 (ip), vehicle: saline with Tween-80) was 100 % of control.
With [I][Ga]([I])[I] the T/C (dose: 25.0 mg/kg/injection, schedule: Q01DX009 (ip), vehicle: saline with Tween-80) was 116 % of control, the T/C [5] was 111 % of control and the T/C [6] was 100 % of control. For the same molecule, the T/C (dose: 100.0 mg/kg/injection, schedule: Q04DX003 (ip), vehicle: saline sonified) was 100 % of control.
In the case of CCN1CCCC(=O)C1, the T/C [4] is reported as 96 % of control, the T/C (dose: 100.0 mg/kg/injection, schedule: Q01DX005 (ip), vehicle: saline with Tween-80) is reported as 101 % of control and the T/C (dose: 200.0 mg/kg/injection, schedule: Q01DX005 (ip), vehicle: saline with Tween-80) is reported as 102 % of control.
For Cc1ccc(S(=O)(=O)NC(=O)O/N=C/c2ccc3c(c2)OCO3)cc1, the T/C [5] was 100 % of control, the T/C [6] was 97 % of control and the T/C (dose: 200.0 mg/kg/injection, schedule: Q01DX009 (ip), vehicle: saline with Tween-80) was 100 % of control.
CC[As](CC)SC1CCC2(C)C(=CCC3C4CCC(=O)C4(C)CCC32)C1 (centres undefined) was tested, and the T/C (dose: 12.5 mg/kg/injection, schedule: Q01DX009 (ip), vehicle: distilled water + Tween-80) was 105 % of control, the T/C (dose: 25.0 mg/kg/injection, schedule: Q01DX009 (ip), vehicle: distilled water + Tween-80) was 100 % of control and 117 % of control and the T/C (dose: 50.0 mg/kg/injection, schedule: Q01DX009 (ip), vehicle: distilled water + Tween-80) was 120 % of control. For the same molecule, the T/C (dose: 100.0 mg/kg/injection, schedule: Q01DX009 (ip), vehicle: distilled water + Tween-80) was 156 % of control.
For Nc1ncnc2c1nc(N)n2C1OC(CO)C(O)C1O (centres undefined), the T/C (dose: 6.0 mg/kg/injection, schedule: Q01DX005 (ip), vehicle: saline) was 122 % of control and the T/C (dose: 25.0 mg/kg/injection, schedule: Q01DX005 (ip), vehicle: saline) was 119 % of control.
In the case of O=C(NO)c1cccc2ccccc12, the T/C [7] is reported as 106 % of control, the T/C [8] is reported as 106 % of control and the T/C [9] is reported as 113 % of control.
With CCN(CC)c1ccc([P+](=O)O)cc1 the T/C [1] was 108 % of control and the T/C [2] was 100 % of control.
CCN1C(=O)NC(=O)C(CC)(N2CCCCC2)C1=O (centres undefined) was tested, and the T/C [7] was 111 % of control, the T/C [8] was 98 % of control and the T/C [9] was 104 % of control.
In the case of Cc1cc(C)c2ccc(NN=O)nc2n1, the T/C (dose: 3.12 mg/kg/injection, schedule: Q01DX009 (ip), vehicle: water) is reported as 118 % of control, the T/C (dose: 12.5 mg/kg/injection, schedule: Q01DX009 (ip), vehicle: water) is reported as 163 % of control and the T/C (dose: 25.0 mg/kg/injection, schedule: Q01DX009 (ip), vehicle: water) is reported as 167 % of control and 169 % of control.
